Experimental data taken from ChEMBL document CHEMBL4402590, “Small-Molecule Antagonist Targeting Exportin-1 via Rational Structure-Based Discovery” (J Med Chem, 2020).
Activity calls are given as the source filed them. No cut-off for these calls is given here.

Tests used:
[1] = tested on: Mus musculus; assay: Anti-inflammatory activity against DSS-induced ulcerative colitis C57BL/6J mouse model assessed as reduction in colon ulceration at 3 and 30 mg/kg, po administered for 7 days and measured on day 7 by […] and eosin staining based microscopic analysis; assay type: functional, organism-based
[2] = tested on: Mus musculus; assay: Anti-inflammatory activity against DSS-induced ulcerative colitis C57BL/6J mouse model assessed as reduction in colon swelling at 3 and 30 mg/kg, po administered for 7 days and measured on day 7 by […] and eosin staining based microscopic analysis; assay type: functional, organism-based
[3] = tested on: Mus musculus; assay: Anti-inflammatory activity against DSS-induced ulcerative colitis C57BL/6J mouse model assessed as re-epithelialization of colon at 3 and 30 mg/kg, po administered for 7 days and measured on day 7 by […] and eosin staining based microscopic analysis; assay type: functional, organism-based
[4] = tested on: Mus musculus; assay: Anti-inflammatory activity against DSS-induced ulcerative colitis C57BL/6J mouse model assessed as reduction in colon inflammation at 3 and 30 mg/kg, po administered for 7 days and measured on day 7 by […] and eosin staining based microscopic analysis; assay type: functional, organism-based
[5] = tested on: Mus musculus; assay: Anti-inflammatory activity against DSS-induced ulcerative colitis C57BL/6J mouse model assessed as preservation of colon mucosal architecture at 3 and 30 mg/kg, po administered for 7 days and measured on day 7 by […] and eosin staining based microscopic analysis; assay type: functional, organism-based
[6] = target: Exportin-1 (Homo sapiens, UniProt O14980); assay: Inhibition of nuclear CRM1 (unknown origin) by cell based assay
Chain of Exportin-1 (O14980 whole entry): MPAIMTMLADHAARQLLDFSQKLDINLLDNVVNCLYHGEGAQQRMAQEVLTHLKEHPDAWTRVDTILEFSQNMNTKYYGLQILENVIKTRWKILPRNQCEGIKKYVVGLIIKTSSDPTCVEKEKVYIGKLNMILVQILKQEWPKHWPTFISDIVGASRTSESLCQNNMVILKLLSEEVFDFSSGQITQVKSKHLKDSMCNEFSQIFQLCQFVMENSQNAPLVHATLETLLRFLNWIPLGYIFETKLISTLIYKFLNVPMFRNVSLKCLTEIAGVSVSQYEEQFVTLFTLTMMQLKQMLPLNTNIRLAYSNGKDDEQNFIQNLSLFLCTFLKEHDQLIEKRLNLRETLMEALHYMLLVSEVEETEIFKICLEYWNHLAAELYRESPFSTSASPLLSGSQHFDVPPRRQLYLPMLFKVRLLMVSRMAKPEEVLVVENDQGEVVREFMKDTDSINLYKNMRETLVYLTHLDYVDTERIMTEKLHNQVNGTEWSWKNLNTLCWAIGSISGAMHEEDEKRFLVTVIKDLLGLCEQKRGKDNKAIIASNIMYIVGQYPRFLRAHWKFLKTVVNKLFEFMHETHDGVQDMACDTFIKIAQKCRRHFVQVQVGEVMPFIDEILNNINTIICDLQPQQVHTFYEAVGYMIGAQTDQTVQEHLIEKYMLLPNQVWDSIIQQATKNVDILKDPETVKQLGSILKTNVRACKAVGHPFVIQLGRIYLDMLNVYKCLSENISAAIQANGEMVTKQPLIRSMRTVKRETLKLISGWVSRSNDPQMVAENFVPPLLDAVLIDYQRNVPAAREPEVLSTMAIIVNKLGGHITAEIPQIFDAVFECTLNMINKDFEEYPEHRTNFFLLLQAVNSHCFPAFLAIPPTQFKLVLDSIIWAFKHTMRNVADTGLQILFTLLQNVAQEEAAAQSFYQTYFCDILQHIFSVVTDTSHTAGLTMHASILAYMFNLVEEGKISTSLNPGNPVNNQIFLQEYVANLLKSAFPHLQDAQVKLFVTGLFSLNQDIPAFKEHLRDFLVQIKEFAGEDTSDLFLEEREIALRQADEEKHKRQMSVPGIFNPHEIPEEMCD

How did the Activity [1] turn out when `Nc1ccc(O)c(C(=O)O)c1` was run?
The Activity was “inactive”.

And the Activity [2]?
The Activity was “inactive”.

What about the Activity [3] of the same molecule?
Its Activity is “inactive”.

And the Activity [4]?
The Activity was “inactive”.

And the Activity [5]?
The Activity was “inactive”.

Which IC50 [6] does the source give for `[O-][S+](/C=C/CCN=C=S)c1ccccc1` (stereo unspecified) here?
The IC50 was 1500 nM.
